Source: US20100144737A1, “METHODS FOR INHIBITING T HELPER CELL DIFFERENTIATION” (FibroGen, Inc., priority 2008, published 2010)

Legend:
[1] = system: IL12Rβ2, IL18R1, and IL18RAP gene expression in T helper cells; test: IL-12-induced gene expression in T helper cells (quantitative RT-PCR); assay type: cell-based, human; conditions: TCR-stimulated T helper cells
Description: The effect of compounds and methods of the present invention on IL-12-induced gene expression in T helper cells was evaluated as follows. For these studies, analyses were performed to examine the effect of compounds of the present invention on expression of three genes induced by IL-12 in T helper cells: IL12Rβ2, IL18R1, and IL18RAP. (See, e.g., Saremeva et al. (2000) J hnmunol 165:1933-1938; Rogge et al. (1997) J Exp Med 185:825-831; and Nakahira et al. (2001) J Inmunol 167:1306-1312.)
Human cord blood naive T helper cells (AllCells LLC, Emeryville, Calif.) were stimulated (i.e., T cell receptor (TCR) stimulation) by seeding into 96-well culture dishes coated with 5 μg/ml anti-CD3 antibody (clone UCHT1, R&D Systems, Minneapolis, Minn.), and 5 μg/ml anti-CD28 antibody (clone ANC28.1/D10, Ancell Corporation, Bayport, Minn.), and cultured at 37° C., 5% CO2 in RPMI-1640 (Mediatech Inc., Herndon, Va.) containing 1% FBS, 1 U/ml penicillin-1 μg/ml streptomycin (Invitrogen Corporation, Carlsbad, California), and 50 U/ml IL-2 (Roche Diagnostics Corporation, Indianapolis, Ind.). At time of seeding, cells were cultured with media alone or with media containing 2 ng/ml IL-12 (R&D Systems, Minneapolis, Minn.) (to stimulate differentiation of the T helper cells into Th1 cells) and 10 μg/ml anti-IL-4 antibody (R&D Systems, Minneapolis, Minn.) (to block differentiation of the T helper cells into Th2 cells). Compound B or 1% DMSO (Veh) was added to the existing culture media and the cells cultured for an additional six days.
The cells were then lysed using Cell-to-Signal lysis buffer (Applied Biosystems, Foster City, Calif.) according to the manufacturer's instructions. The cell lysates were diluted with RNAse-free and DNAse-free water and used as templates in quantitative one-step duplex RT-PCR reactions using QuantiTect Multiplex RT-PCR Kit reagents (Qiagen Inc., Valencia, Calif.) and Taqman primers and probes (Applied Biosystems, Foster City, Calif.) as follows: IL18RAP Taqman primer/probe, catalog no. HS00187256M1; IL-12Rβ2 Taqman primer/probe, catalog no. HS00155486M1; EL18R1 Taqman primer/probe, catalog no. HS00175381M1; and TBET Taqman primer/probe, catalog no. HS00203436M1. RT-PCR reactions were performed according to the manufacturers' instructions. Changes in gene expression of IL12Rβ2, IL18R1, and IL18RAP following IL-12 addition in each sample were normalized relative to 18s ribosomal RNA gene expression measured in the same sample.

naïve T helper cells = test: Th1 cell differentiation: IFN-γ secretion after second and third TCR stimulation following washout; assay type: cell-based, human; conditions: another series, first TCR stimulation six days with IL-12, FIG. 8
Description: The effectiveness of compounds of the present invention at reducing Th1 differentiation was examined as follows. Th1 differentiation was induced by culturing anti-CD3 stimulated T cells in the presence of exogenous IL-12. Human cord blood naive T helper cells (AllCells LLC, Emeryville, Calif.) were stimulated (i.e., T cell receptor (TCR) stimulation) by seeding into 96-well culture dishes coated with 5 μg/ml anti-CD3 antibody (clone UCHT1, R&D Systems, Minneapolis, Minn.), and 5 μg/ml anti-CD28 antibody (clone ANC28.1/D10, Ancell Corporation, Bayport, Minn.), and cultured at 37° C., 5% CO2 in RPMI-1640 (Mediatech Inc., Hemdon, Va.) containing 1% FBS, 1 U/ml penicillin-1 μg/ml streptomycin (Invitrogen Corporation, Carlsbad, Calif.), and 50 U/ml IL-2 (Roche Diagnostics Corporation, Indianapolis, Ind.). At time of seeding, cells were cultured with media alone or with media containing 2 ng/ml IL-12 and 10 μg/ml anti-IL-4 to induce Th1 cell differentiation. […]
The cells were then collected, washed twice with RPMI-1640 media containing 1% FBS, and counted before equal numbers of cells per well were re-stimulated (second T cell receptor (TCR) stimulation following washout of all prior treatments) by re-seeding the cells into 96-well culture dishes coated with 5 μg/ml anti-CD3 antibody and 5 μg/ml anti-CD28 antibody. […] After 24 hours the conditioned media from the cells was collected and analyzed for IFN-γ levels using a MS2400 Tissue Culture Kit (MesoScale Technologies, Gaithersburg, Md.) according to the manufacturer's instructions.
Thirteen days after the second TCR stimulation described above, the cells were collected, washed twice with RPMI-1640 media containing 1% FBS, and counted before equal numbers of cells per well were stimulated a third time (third TCR stimulation) by re-seeding into 96-well culture dishes coated with 5 μg/ml anti-CD3 antibody and 5 μg/ml anti-CD28 antibody. […]
In another series of experiments, the effectiveness of compounds of the present invention at reducing Th1 differentiation was determined. […]

[2] = absence of IL-12, six days, normalized to 18s ribosomal RNA

Structure (SMILES)	gene expression of IL12Rβ2 [1, 2]	gene expression of IL18R1 [1, 2]	gene expression of IL18RAP [1, 2]	IL-12-mediated increase in IL12Rβ2 gene expression ([1]; presence of IL-12, six days)	IL-12-mediated increase in IL18R1 gene expression ([1]; presence of IL-12, six days)	IL-12-mediated increase in IL18RAP gene expression ([1]; presence of IL-12, six days)	IFN-γ secretion following the second TCR stimulation (naïve T helper cells)
O=C(O)CNC(=O)c1ncc2cc(Oc3ccccc3)ccc2c1O [Compound B, [(4-Hydroxy-7-phenoxy-isoquinoline-3-carbonyl)-amino]-acetic acid]	decrease	decrease	decrease	reduced	reduced	reduced	–
Cc1ccc(Cl)c2cnc(C(=O)NCC(=O)O)c(O)c12 [Compound D, [(8-Chloro-4-hydroxy-5-methyl-isoquinoline-3-carbonyl)-amino]-acetic acid]	–	–	–	–	–	–	reduced IFN-γ secretion
